Measured values as given in patent US20140286906A1, “USE OF IGF-1 IN THE MODULATION OF TREG CELL ACTIVITY AND THE TREATMENT AND PREVENTION OF AUTOIMMUNE DISORDERS OR DISEASES” (priority 2011, published 2014).

Assays:
[1] = mouse, in vivo
[2] = system: STZ induced diabetes; test: streptozotocin (STZ) induced autoimmune diabetes, systemic rhIGF-1 delivery; type: in vivo, mice
Text: Regarding the functional assay for diabetes a protocol that measures the clearance of a standardized glucose load from the body after intraperitoneal injection was used (intraperitoneal glucose tolerance test, see Heikkinen et al. (2007)).
Beta-cells sense glucose levels and release insulin to maintain physiologic glucose levels within a relatively narrow range. Destruction of beta-cells by the immune system is correlated with the inability to control glucose levels (measured by the glucose tolerance test). Another way to assess whether IGF-1 stimulates proliferation and/or recruitment of regulatory T cells to the damaged tissues is by determining the number of FOXP3 expressing cells per unit area in the affected tissues by immunohistochemistry.
(§1) Shortly, single cell suspensions are prepared from the […] and spinal cord. The resulting cells are stained with anti-CD4 antibodies and separated using fluorescent-activated cell sorting. RNA is then extracted and purified and serves as a template for a quantitative RT-PCR reaction with Taqman probes. Finally, the relative amount of each mRNA compared to a house-keeping gene (Hprt) is determined.
An accepted model of experimental autoimmune diabetes in mice is the induction of diabetes by multiple injections of a low dose of streptozotocin (STZ). STZ causes diabetes by direct beta cell cytotoxicity as well as by initiation of T cell-mediated autoimmune attack of β-cells (O'Brian et al., 1996). Using this model the inventors examined if systemic delivery of rhIGF-1 could prevent autoimmune diabetes in the early stages of the disease. […] The inventors therefore addressed the effects of IGF-1 […] and sixty-one days after the treatment was stopped.
First the inventors examined the ability of CsA to suppress IGF-1 activity in vitro. […] Then the inventors tested whether CsA treatment in vivo could also impair IGF-1 protective effect at early stages of the disease. A GTT was performed three weeks from the first STZ injection.

[3] = system: experimental autoimmune encephalomyelitis (EAE); type: in vivo
Method: Regarding EAE, clinical severity of the disease is scored using a grading score from 0 to 5, where 0 means no clinical signs and 5 means a moribund paralysed mouse. As the disease progresses the body is paralysed progressively from tail to upper limbs. In these experiments the protocol described by Stromnes and Goverman (2006) is used.
as §1
Based on these and our previous observations, the inventors hypothesized that systemic and prolonged delivery of IGF-1 in mice developing EAE would increase and correctly localized Tregs and thus positively affect the course of the disease. The inventors therefore implanted subcutaneously the IGF-1 delivery devices and induced EAE in mice. […] In order to determine if the amelioration of the disease was associated with an increase in T regulatory function, the inventors performed immunohistochemical analysis to determine the number and localization of T regulatory cells in the spinal cord at the early stages of the disease. […] There was therefore a negative correlation between the number of Treg cells and the observed clinical score. Moreover, both clinical improvement and increased regulatory cell number associated with IGF-1 treatment were abolished by CTLA-4 blockade, which interferes with regulatory T cell function (FIG. 26; Herman et al., 2004).
The inventors induced EAE and mice and initiated the IGF-1 treatment when the first signs of paralysis appeared (FIG. 27).

[4] = RT-PCR day 27, compared to control mice

## Insulin-like growth factor-1 [IGF-1]
[1]
  tumors at necropsy: never found tumors
[2]; IGF-1 treatment, P=0.004
  ratio of CD4:Foxp3 positive cells in the spleen: decreased
[2]; RT-PCR seven weeks after disease induction, beyond treatment
  Foxp3 mRNA in pancreatic CD4 positive cells: higher expression
[2]; day ninety-seven after first STZ injection
  cell mass and architecture of insulin-producing pancreatic islands (insulin staining): long-lasting protective effects
[2]; day ninety-seven after first STZ injection, P=0.0159
  density of T regulatory cells in pancreas (Foxp3 staining): higher density of T regulatory cells
[2]; mice without STZ
  glucose control in untreated (non-diabetic) mice: no effect
[2]; nice and sixty-one days after treatment was stopped, P37d=0.016, P89d=0.036
  glucose homeostasis (GTT AUC) after end of treatment: long-term improved glucose homeostasis
[2]; three weeks from first STZ injection, four weeks after pump implantation
  blood glucose in glucose tolerance test (GTT): lower glucose levels
[3]; [4]
  Foxp3 expression in CD4 positive cells of the spinal cord: increase
  IL-10 expression in CD4 positive cells of the spinal cord: increase
  IL-17 expression in CD4 positive cells of the spinal cord: decrease
  interferon-gamma expression in CD4 positive cells of the spinal cord: decrease
[3]; early stages of the disease
  Treg cell number in the spinal cord (immunohistochemistry): increase in Treg cell number
[3]; mouse, in vivo
  detrimental effect in EAE: never showed a detrimental effect
[3]; prophylactic or therapeutic manner, n=34, P=0.028
  mortality: significantly reduced mortality
[3]; prophylactic: delivery device implanted day -3, immunization day 0, 4 weeks, n=13
  clinical outcome (clinical grading): improved clinical outcome
[3]; therapeutic: applied after onset of disease (day 11), P<0.05 from day 13
  clinical severity: reduced clinical severity
